Measured values taken from article PMC12227259, “PubChem BioAssays 1063: A Poorly Exploited Source of New Antileishmanial Compounds” (Journal of Parasitology Research, 2025).
Like-named read-outs stand apart in the source and are kept apart here.

Tests used:
[1] = test system: L. mexicana promastigotes; experiment: Growth inhibition assay of promastigotes (pNPP); assay type: cell-based, Leishmania (Leishmania) mexicana MNYC/BZ/62/M379; details: Leishmania mexicana, read-out: Promastigotes (IC50 ± SD) L. mexicana
From the text: (§1) Leishmania (Leishmania) amazonensis MHOM/BR/77/LTB0016 reference strain was kindly donated by the Department of Immunology of Fundação Oswaldo Cruz (Fiocruz), Brazil. Leishmania (Leishmania) mexicana MNYC/BZ/62/M379 and L. major MHOM/IL/81/Friedlin reference strains were kindly donated by Paul A. Bates, Division of Biomedical and Life Sciences, Faculty of Health and Medicine, Lancaster University, United Kingdom. Leishmania (Leishmania) infantum MHOM/FR/78/LEM75 was kindly donated by the Department of Parasitology, Faculty of Pharmacy, Universidad Complutense de Madrid, Spain. The promastigotes were cultivated at 26°C in Medium 199 (Gibco, Grand Island, NY, United States) supplemented with 10% heat-inactivated (56°C, 30 min) fetal bovine serum (Gibco, Grand Island, NY, United States) and antibiotics (200 IU penicillin and 200 μg/mL streptomycin). Exponential multiplication of the promastigotes of the four species was attained by passages every 3–4 days. L. mexicana axenic amastigotes were cultured in Schneider's Insect Medium (Sigma-Aldrich, St. Louis, MO, United States) at pH 5.4, supplemented with 20% heat-inactivated fetal bovine serum and antibiotics (as above).
(§2) The growth inhibition assay of promastigotes was conducted according to Bodley et al.'s procedure, with minor modifications. Briefly, 96-well culture plates were seeded with 100 μL culture medium 199 containing 5 × 10^5 log-phase promastigotes and 100 μL of twofold serial dilutions of the test compounds in culture medium. The plates were sealed with parafilm and incubated for 48 h at 26°C. Negative control wells contained promastigotes and DMSO at 0.5%, and positive wells contained promastigotes and 2.7 μM amphotericin B deoxycholate (Gibco, Grand Island, NY, United States). A series of amphotericin B concentrations was also tested in parallel to estimate its IC50 against promastigotes of the three Leishmania strains. After the incubation period, 30 μL of 3 mg/mL p-nitro-phenyl-phosphate (pNPP) (Sigma-Aldrich) in sodium acetate (pH 5.5, Sigma-Aldrich) and 1% Triton X-100 (Sigma-Aldrich) were added to each well. Plates were incubated for other 3 h at 37°C, and 50 μL 0.25 M NaOH (Sigma-Aldrich) was added to change all the produced p-nitro-phenol to its yellow-colored form. Absorbance was then read in a Biotek Epoch microplate reader (Agilent, Santa Clara, CA, United States) at 405 nm. Half-maximal inhibitory concentrations (IC50) were estimated by nonlinear fitting of absorbance versus compound concentration to the sigmoid Emax equation [18]. Each drug concentration was tested in quadruplicate, and the assay was repeated three times.

[2] = test system: L. infantum promastigotes; experiment: Growth inhibition assay of promastigotes (pNPP); assay type: cell-based, Leishmania (Leishmania) infantum MHOM/FR/78/LEM75; details: Leishmania infantum, read-out: Promastigotes (IC50 ± SD) L. infantum
From the text: as §1, §2

[3] = test system: L. major promastigotes; experiment: Growth inhibition assay of promastigotes (pNPP); assay type: cell-based, L. major MHOM/IL/81/Friedlin; details: Leishmania major, read-out: Promastigotes (IC50 ± SD) L. major
From the text: as §1, §2

[4] = test system: L. amazonensis promastigotes; experiment: Growth inhibition assay of promastigotes (pNPP); assay type: cell-based, Leishmania (Leishmania) amazonensis MHOM/BR/77/LTB0016; details: Leishmania amazonensis, read-out: Promastigotes (IC50 ± SD) L. amazonensis
From the text: as §1, §2

[5] = Cytotoxicity, alamar blue; assay type: cell-based, BALB/c mice; details: BALB/c, read-out: Cytotoxicity (CC50 ± SD)
Protocol: The cytotoxicity of the test compounds was assessed in primary cultures of mouse peritoneal macrophages as reported elsewhere, with minor modifications. Briefly, BALB/c mice were sacrificed by CO2 inhalation, and their peritoneal macrophages were collected by washing the abdominal cavity with cold RPMI 1640 (Gibco, Paisley, Scotland, United Kingdom) culture medium supplemented with antibiotics (sodium penicillin 200 IU and streptomycin 200 μg/mL) and 10% fetal bovine serum. The macrophages were distributed in 96-well culture plates at 10^5 cells/well. After 4 h incubation at 37°C and 5% CO2, the culture medium was replaced by fresh medium containing the test compounds, and the plates were incubated for another 48 h. Afterwards, 20 μL alamar blue (Thermo Fisher Scientific, Oregon, United States) was added per well. Incubation was continued for another 6–8 h at 37°C and 5% CO2 to measure the fluorescence of the reduced dye in a plate reader (excitation: 485 nm, emission: 590, scaling factor: 10/10, Fluoroskan Ascent FL 2.5 plate reader—Thermo Labsystems, Waltham, MA, United States). Fifty percent cytotoxic concentrations (CC50) were estimated by nonlinear fitting to the Emax sigmoid model. Each concentration was tested in triplicate, and each compound was tested in three independent studies.

[6] = test system: L. mexicana intracellular amastigotes; experiment: Intracellular amastigote transformation and proliferation assay; assay type: cell-based, Leishmania (Leishmania) mexicana; details: for IC50: Leishmania mexicana, Peritoneal macrophage, read-out: L. mexicana amastigotes (IC50 ± SD)
From the text: as §1
The activity of the test compounds against L. mexicana intracellular amastigotes was carried out by the transformation and proliferation assay as reported elsewhere. Briefly, mouse peritoneal macrophages were obtained by peritoneal lavage of BALB/c mice and cultivated in RPMI 1640 medium supplemented with fetal bovine serum and antibiotics as described above. The cells were seeded in 96-well culture plates at 10^5 cells/well (100 μL) and incubated at 37°C and 5% CO2 for 2 h. Then, macrophages were infected with L. mexicana axenic amastigotes at a rate of three parasites per host cell. After overnight incubation at 37°C and 5% CO2, noninternalized amastigotes and nonadhered macrophages were removed by the elimination of the culture medium and washing with phosphate buffer solution (PBS). Fresh RPMI 1640 medium containing serial dilutions of the test compounds was then added. Amphotericin B was tested in parallel at concentrations from 1.35 to 0.021 μM. Four replicates of each drug concentration were tested in every assay. Plates were incubated for 48 h at 37°C and 5% CO2.

[7] = test system: L. mexicana; experiment: Mouse model of cutaneous leishmaniasis, intralesional treatment; assay type: in vivo, BALB/c mice; details: for lesion size versus amphotericin B–treated mice: at 21 days
Protocol: Female, 18–20 g, 8–10 weeks old BALB/c mice were supplied by the laboratory animal breeding facility of the Faculty of Medicine, National Autonomous University of México. They were maintained under controlled environmental conditions (room temperature 22°C–25°C, relative humidity 60%–65%, light cycle 12 h light–12 h dark) and were handled by qualified personnel. At the end of studies, mice were sacrificed by CO2 inhalation. The experimental protocol was approved by the Ethics in Research Committee and the Internal Committee on the Care and Use of Lab Animals (Code CICUAL 004-CIC-2019). All the experiments were conducted in accordance with the Mexican Regulation and the Institute of Laboratory Animal Research Guide for the care and use of laboratory animals.
Mice were infected by intradermal injection in the footpads with 10^7 stationary-phase L. mexicana promastigotes. Two weeks later, mice were randomly allocated in seven groups of 6–7 mice each. Four groups were treated intralesionally every 3 days (five doses) with 20 μL of any of the test compounds at 10 mg/mL in DMSO. […] The dorso-plantar thickness of the rear limbs was weekly measured from the beginning of treatment (14 days postinfection) to 2 weeks after the end of treatment. Feet were measured with a Vernier caliper, and lesion sizes were calculated by subtracting the value of the noninfected limb (left) to that of the infected one (right).
Two weeks after the end of treatment, mice were weighed, sacrificed by CO2 inhalation, and necropsied. The weights of the heart, liver, spleen, and left and right kidneys were determined. Both rear limbs were excised at the level of the tibiotarsal joint and weighed to calculate, by difference, the weight of the lesions. The number of parasites in the lesions was estimated by using the limiting dilution assay technique.

[8] = parameters: method as in PMID 6576723; details: subcutaneous route; cited from earlier work
[9] = test system: L. donovani axenic amastigotes; parameters: method as in PMID 27501246; details: cited from earlier work
[10] = test system: Trypanosoma cruzi; parameters: method as in PMID 27501246; details: in vitro and in vivo; cited from earlier work
[11] = test system: Trypanosoma brucei; parameters: method as in PMID 27501246; details: in vitro and in vivo; cited from earlier work
[12] = test system: Leishmania; details: cited from earlier work
[13] = intracellular amastigotes in mouse peritoneal macrophages, 48 h, then 72 h transformation at 26°C
[14] = second mention, p = 0.0057 (Compound 5), p = 0.0030 (Compound 6)

Question: For CC(C)OCCCn1c(=N)c(C(N)=S)cc2c(=O)n3ccccc3nc21 [Compound 5], which IC50 ([1]; 48 h at 26°C, pNPP readout) is on record?
Answer: 27200 ± 6200 nM

Question: And the IC50 ([2]; 48 h at 26°C, pNPP readout)?
Answer: 13.8 ± 4.1 µM

Question: What about the IC50 ([3]; 48 h at 26°C, pNPP readout) of the same compound?
Answer: 9.9 ± 1.9 µM

Question: What about the IC50 ([4]; 48 h at 26°C, pNPP readout) of the same compound?
Answer: 28600 ± 14300 nM

Question: What about the CC50 at 48 h ([5]; primary mouse peritoneal macrophages) of the same compound?
Answer: 172 ± 7.9 µM

Question: And the IC50 [6, 13]?
Answer: 1100 ± 300 nM

Question: And the “average lesion weight versus amphotericin B treated mice” value ([7]; 2 weeks after the end of treatment, p = 0.023)?
Answer: statistically lower

Question: What about the “lesion size versus amphotericin B–treated mice” value ([7]; first mention, p = 0.0491) of the same compound?
Answer: statistically smaller

Question: And the “lesion size versus amphotericin B–treated mice” value [7, 14]?
Answer: statistically smaller

Question: With CN1CCN(Cc2ccccc2Sc2ccccc2)CC1 [Compound 6] as the compound, how does the IC50 ([1]; 48 h at 26°C, pNPP readout) read?
Answer: 2300 ± 540 nM

Question: And the IC50 ([2]; 48 h at 26°C, pNPP readout)?
Answer: 2.7 ± 1 µM

Question: What about the IC50 ([3]; 48 h at 26°C, pNPP readout) of the same compound?
Answer: 4.6 ± 2.3 µM

Question: What about the IC50 ([4]; 48 h at 26°C, pNPP readout) of the same compound?
Answer: 3000 ± 420 nM

Question: What about the CC50 ([5]; mouse peritoneal macrophages, 48 h) of the same compound?
Answer: 60.9 ± 10.7 µM

Question: And the Selectivity index ([6]; CC50/IC50 (in amastigotes))?
Answer: 10

Question: And the IC50 [6, 13]?
Answer: 5900 ± 2800 nM

Question: What about the “lesion size versus amphotericin B–treated mice” value [7, 14] of the same compound?
Answer: statistically smaller

Question: For O=C(Cn1cc([N+](=O)[O-])nc1[N+](=O)[O-])N1CCN(c2ccccc2)CC1 [Compound 7], which IC50 ([1]; 48 h) is on record?
Answer: 760 ± 160 nM

Question: And the IC50 ([2]; 48 h)?
Answer: 5.9 ± 1 µM

Question: What about the IC50 ([3]; 48 h) of the same compound?
Answer: 2.9 ± 0.56 µM

Question: And the IC50 ([4]; 48 h)?
Answer: 1200 ± 440 nM

Question: And the CC50 at 48 h ([5]; mouse peritoneal macrophages)?
Answer: 25.2 ± 1.9 µM

Question: And the IC50 ([6]; in Mus musculus)?
Answer: 230 ± 40 nM

Question: Which “50% lethal single dose toxicity” value [8] does the source give for C[S+](C)[O-] [DMSO, dimethyl sulfoxide] here?
Answer: 13.9 to 20.5 g/kg

Question: Which results are given for Cc1nc(C)c(C(=O)Nc2ccc(F)c(-c3nc4ncc(-c5ccccn5)cn4n3)c2)o1 [GNF 6702]?
Answer: increase in potency on optimization of hit GNF5343 [9]: 400 fold; activity against Trypanosoma cruzi [10]: active; activity against Trypanosoma brucei [11]: active

Question: Which “in vivo activity in an experimental model of cutaneous leishmaniasis” value [12] does the source give for CCN(CC)C(=S)SSC(=S)N(CC)CC [disulfiram] here?
Answer: in vivo activity
